Like-named read-outs stand apart in the source and are kept apart here.
Format: physicochemical
Procedure: The percentage amount of spiropidion remaining at each time interval during the high temperature storage testing was compared to an identical sample stored at −18° C. (100%=amount of spiropidion in the −18° C. sample at respective time interval).

SMILES: CCOC(=O)OC1=C(c2c(C)cc(Cl)cc2C)C(=O)N(C)C12CCN(OC)CC2 [Spiropidion, [3-(4-chloro-2,6-dimethyl-phenyl)-8-methoxy-1-methyl-2-oxo-1,8-diazaspiro[4.5]dec-3-en-4-yl]ethyl carbonate]
- chemical degradation of the active ingredient spiropidion: only minimal chemical degradation
- % Spiropidion remaining (1 month): 99%
- % Spiropidion remaining (12 months): 98%

Source: patent US12653192B2, “Pesticidal compositions” (SYNGENTA CROP PROTECTION AG, priority 2021, dated 2026)
